Test results taken from patent US10716814B2, “Mesenchymal stem cells and uses therefor” (Mesoblast International Sárl, priority 2004, dated 2020).

Assays:
DC1 cells = assay: MSC co-culture with LPS-activated DC1 cells, TNF-α secretion; format: cell-based, human; conditions: MSCs cultured with activated DC1 in presence of PGE2 inhibitor
From the text: Peripheral blood mononuclear cells (PBMCs) were obtained from Poietics Technologies, Div of Cambrex Biosciences (Walkersville, Md.). Precursors of dendritic cells (DCs) of monocytic lineage (CD1c^+) were positively selected from PBMCs using a 2-step magnetic separation method according to Dzionek, et al., J. Immunol., Vol. 165, pg. 6037 (2000). Briefly, CD1c expressing B cells were magnetically depleted of CD19^+ cells using magnetic beads, followed by labeling the B-cell depleted fraction with biotin-labeled CD1c (BDCA1^+) and anti-biotin antibodies and separating them from the unlabeled cell fraction utilizing magnetic columns according to the manufacturer's instructions (Miltenyi Biotech, Auburn, Calif.). Precursors of DCs of plasmacytoid lineage were isolated from PBMCs by immuno-magnetic sorting of positively labeled antibody coated cells (BDCA2^+) (Miltenyi Biotech, Auburn, Calif.).
In most experiments, human MSCs and DCs were cultured in equal numbers for various time periods and cell culture supernatant collected and stored at −80° C. until further evaluation. […] The non-adherent cell fraction (purified T cells) was then collected from the cultures, washed twice and re-stimulated with PHA for another 24 hours, following which cell culture supernatants were harvested and analyzed for secreted IFN-γ and IL-4 by ELISA. […]

CD4+ Th cells = assay: Generation of TH1/TH2 cells in presence or absence of MSCs, IFN-γ and IL-4 by ELISA; format: cell-based, human; conditions: MSCs cultured with TH1 cells in presence of PGE2 inhibitor
Procedure: Peripheral blood mononuclear cells (PBMCs) were plated at 2×10^6 cells/ml for 45 min. at 37°C. in order to remove monocytes. Non-adherent fraction was incubated in the presence of plate-bound anti-CD3 ([…]) and anti-CD28 (1 μg/ml) antibodies under TH1 (IL-2 (4 ng/ml)+IL-12 (5 ng/ml)+anti-IL-4 (1 μg/ml)) or TH2 (IL-2 (4 ng/ml)+Il-4 (4 ng/ml)+anti-IFN-γ (1 μg/ml)) conditions for 3 days in the presence or absence of MSCs. The cells were washed and then re-stimulated with PHA (2.5 μg/ml) for another 24 or 48 hours, following which levels of IFN-γ and IL-4 were measured in culture supernatants by ELISA (R&D Systems, Minneapolis, Minn.).

MSCs = assay: Secreted factors (PGE2, IL-6, VEGF, pro-MMP-1) in culture supernatant of MSCs; format: cell-based; conditions: Homo sapiens, 24 hour culture, read-out: inhibition of PGE2 secretion by hMSCs
Procedure: Using previously characterized human MSCs, the levels of Interleukin-6 (IL-6), VEGF, lipid mediator prostaglandin E2 (PGE2), and matrix metalloproteinase 1 (pro-MMP-1) were analyzed in culture supernatant of MSCs cultured for 24 hours in the presence or absence of PBMCs (MSC to PBMC ratio 1:10).

CS(=O)(=O)Nc1ccc([N+](=O)[O-])cc1OC1CCCCC1 [NS-398]
TNF-α secretion by DC1s (DC1 cells): increased TNF-α secretion
IFN-γ secretion from TH1 cells (CD4+ Th cells): increased
inhibition at 5 µM (MSCs; NS-398 5 μM): 60 to 90%

COc1ccc2c(c1)c(CC(=O)O)c(C)n2C(=O)c1ccc(Cl)cc1 [indomethacin]
TNF-α secretion by DC1s (DC1 cells): increased TNF-α secretion
IFN-γ secretion from TH1 cells (CD4+ Th cells): increased
inhibition at 4 µM (MSCs; indomethacin 4 μM): 60 to 90%
